The data set is described as follows: physchem.

We go through 63 compounds from ChEMBL document CHEMBL1122023, “Potential antitumor agents. 36. Quantitative relationships between experimental antitumor activity, toxicity, and structure for the general class of 9-anilinoacridine antitumor agents” (J Med Chem, 1982).

The pKa is the negative logarithm of the acid dissociation constant.

Description: Ionization constant (pKa)

In turn, `CNc1ccc2c(Nc3ccc(NS(C)(=O)=O)cc3OC)c3ccccc3nc2c1` came in with a pKa of 9.5.

Take `COc1ccccc1Nc1c2ccccc2nc2ccc(C(C)C)c(NS(C)(=O)=O)c12`: the pKa amounted to 7.4. `COc1ccc2c(Nc3ccc(NS(C)(=O)=O)cc3)c3ccc(Cl)cc3nc2c1` displayed a pKa of 6.91.

`COS(=O)(=O)Nc1ccc(Nc2c3ccccc3nc3cc(Cl)ccc23)cc1` came in with a pKa of 6.57. The compound `COc1cc(NS(C)(=O)=O)ccc1Nc1c2ccccc2nc2cccc([N+](=O)[O-])c12` displayed a pKa of 4.98. The value for `COc1cc(NS(C)(=O)=O)ccc1Nc1c2ccc(I)cc2nc2ccc(N)cc12` was 6.72. `COc1cc(NS(C)(=O)=O)ccc1Nc1c2ccccc2nc2c(OC3OC(CO)C(O)C(O)C3NC(C)=O)cccc12` (stereo not drawn) displayed a pKa of 6.35. The compound `CS(=O)(=O)Nc1ccc(Nc2c3ccc(Cl)cc3nc3ccc(N)cc23)cc1` registered a pKa of 6.56. `CS(=O)(=O)Nc1ccc(Nc2c3ccccc3nc3c(CO)cccc23)cc1` showed a pKa of 6.68. The value for `CN(C)/N=N/c1ccc2c(Nc3ccc(NS(C)(=O)=O)cc3)c3ccccc3nc2c1` was 7.13; that for `CN(C)c1ccc2nc3ccccc3c(Nc3ccc(NS(C)(=O)=O)cc3)c2c1` was 7.27. Compound `COc1cc(NS(C)(=O)=O)ccc1Nc1c2ccccc2nc2cc(NC(C)=O)ccc12` registered a pKa of 7.77. Compound `Cc1cc(NS(C)(=O)=O)ccc1Nc1c2ccccc2nc2ccccc12` yielded a pKa of 7.36. For the compound `CS(=O)(=O)Nc1ccc(Nc2c3ccccc3nc3cc(F)ccc23)cc1`, the pKa is 6.77.

`CCc1cccc2c(Nc3ccc(NS(C)(=O)=O)cc3)c3ccccc3nc12` gave a pKa of 7.14. In the case of `COc1cc(NS(C)(=O)=O)ccc1Nc1c2cccc(OC)c2nc2c(OC)cccc12` it was 6.9. `CS(=O)(=O)Nc1ccc(Nc2c3ccccc3nc3ccccc23)cc1[N+](=O)[O-]` showed a pKa of 5.42. `COc1ccc2nc3cc(Cl)ccc3c(Nc3ccc(NS(C)(=O)=O)cc3OC)c2c1` returned a pKa of 6.52. Take `COc1cc(NS(C)(=O)=O)ccc1Nc1c2ccccc2nc2cccnc12`: the pKa came to 7.19. For `CC(=O)Nc1ccc2c(Nc3ccc(NS(C)(=O)=O)cc3)c3ccc(NC(C)=O)cc3nc2c1`, the pKa stood at 7.55. In the case of `COc1cc(NS(=O)(=O)OC)ccc1Nc1c2ccccc2nc2c(CCC(N)=O)cccc12` it was 7.15; in that of `Cc1ccc2c(Nc3ccc(NS(C)(=O)=O)cc3)c3cccc(C)c3nc2c1`, 7.46.

As to `Cc1cc(NS(C)(=O)=O)ccc1Nc1c2ccccc2nc2c(C)cccc12`, the pKa was found to be 7.39. For `COc1cc(NS(C)(=O)=O)ccc1Nc1c2ccc(N)cc2nc2c(C)cccc12`, the pKa was determined as 9.88. `COc1cc(NS(C)(=O)=O)ccc1Nc1c2ccccc2nc2cc(N)ccc12` displayed a pKa of 7.36. Take `COc1cc(NS(C)(=O)=O)ccc1Nc1c2ccc([N+](=O)[O-])cc2nc2cc([N+](=O)[O-])ccc12`: the pKa was 3.82. `COc1cc(NS(C)(=O)=O)ccc1Nc1c2ccccc2nc2ccc([N+](=O)[O-])cc12` registered a pKa of 5.63. In turn, `COc1ccc2[nH]c3ccccc3c(=Nc3ccc(NS(C)(=O)=O)cc3OC)c2c1` gave a pKa of 7.1. The value for `CCCCOc1cccc2c(Nc3ccc(NS(C)(=O)=O)cc3OC)c3ccccc3nc12` was 7.34; that for `COc1cc(NS(C)(=O)=O)ccc1Nc1c2ccccc2nc2c(C(=O)NCCO)cccc12` was 6.34. `COc1cc(NS(C)(=O)=O)ccc1Nc1c2ccccc2nc2cc(CCC(N)=O)ccc12` displayed a pKa of 7.5.

Take `COc1cc(NS(C)(=O)=O)ccc1Nc1c2ccc([N+](=O)[O-])cc2nc2c(OC)cccc12`: the pKa came to 5.68. Consider `COc1cc(NS(C)(=O)=O)ccc1Nc1c2ccccc2nc2cccc(C)c12`, for which the pKa worked out at 6.71. In the case of `COc1cc(NS(C)(=O)=O)ccc1Nc1c2ccc(N=[N+]=[N-])cc2nc2c(C)cccc12` it was 7.22; in that of `COc1cc(NS(C)(=O)=O)ccc1Nc1c2ccc(Cl)cc2nc2cc(Cl)ccc12`, 6.18.

In turn, `COc1cc(NS(C)(=O)=O)ccc1N=c1c2ccccc2[nH]c2ccc(C(N)=O)cc12` registered a pKa of 6.59. In the case of `CCc1ccc2nc3ccccc3c(Nc3ccc(NS(C)(=O)=O)cc3OC)c2c1` it was 7.46; in that of `CCCOc1cccc2c(Nc3ccc(NS(C)(=O)=O)cc3OC)c3ccccc3nc12`, 7.36.

Turning to `COc1cc(NS(C)(=O)=O)ccc1Nc1c2ccccc2nc2c(C)c(Cl)ccc12`, the pKa came to 6.71. In the case of `CCC(=O)Nc1ccc2c(Nc3ccc(NS(C)(=O)=O)cc3)c3ccccc3nc2c1`, the pKa is 7.35. With `COc1cc(NS(C)(=O)=O)ccc1Nc1c2ccc(I)cc2nc2c(OCC(O)CO)cccc12` (stereo not drawn), the pKa was 6.7. As to `COc1cc(NS(C)(=O)=O)ccc1Nc1c2ccccc2nc2cc(S(C)(=O)=O)ccc12`, the pKa was found to be 5.87. In the case of `COc1cc(NS(C)(=O)=O)ccc1Nc1c2ccccc2nc2cc(N=[N+]=[N-])ccc12` it was 7.26. In the case of `COc1cc(NS(C)(=O)=O)ccc1Nc1c2ccccc2nc2cc(C(F)(F)F)c(N)cc12` it was 6.56. The compound `COc1cc(NS(C)(=O)=O)ccc1Nc1c2ccccc2nc2ccc(Cl)cc12` yielded a pKa of 6.69. This pKa and that of the compound before are within 0.2 log units of each other. `COc1cc(NS(C)(=O)=O)ccc1Nc1c2ccc(I)cc2nc2c(OC)cccc12` had a pKa of 6.74.

Turning to `COc1cc(NS(C)(=O)=O)ccc1Nc1c2ccc(Cl)cc2nc2c(OC)cccc12`, the pKa is 6.79. Take `COc1cc(NS(C)(=O)=O)ccc1Nc1c2ccccc2nc2cc(Br)c(N)cc12`: the pKa came out at 7.01. Regarding `CCCNc1ccc(Nc2c3ccccc3nc3ccccc23)cc1`, the pKa came to 8.24. Take `O=[N+]([O-])c1ccc2nc3ccccc3c(Nc3ccccc3)c2c1`: the pKa came out at 6.26. On to `COc1cc(NS(C)(=O)=O)ccc1Nc1c2ccc(Br)cc2nc2cc(Br)ccc12`, for which the pKa turned out to be 6.17. For the compound `Cc1ccc2c(Nc3ccc(NS(C)(=O)=O)cc3)c3ccc([N+](=O)[O-])cc3nc2c1`, the pKa amounted to 5.81. On to `COc1cc(NS(C)(=O)=O)ccc1Nc1c2ccccc2nc2c(OCC(O)CO)cccc12` (stereo in doubt; 303), for which the pKa was 7.

`CS(=O)(=O)Nc1ccc(NS(C)(=O)=O)c(Nc2c3ccccc3nc3ccccc23)c1` returned a pKa of 6.02. The value for `CCCC(=O)Nc1ccc2c(Nc3ccc(NS(C)(=O)=O)cc3)c3ccccc3nc2c1` was 7.37.

`CS(=O)(=O)Nc1ccc(Nc2c3ccccc3nc3cc(Cl)c(N)cc23)cc1` gave a pKa of 6.71. Take `COc1cc(NS(C)(=O)=O)ccc1Nc1c2cccc(C)c2nc2c(C)cccc12`: the pKa came to 6.91.

The compound `COc1cc(NS(C)(=O)=O)ccc1Nc1c2ccc(C)cc2nc2c(C)cccc12` had a pKa of 7.67.

The compound `COc1cc(NS(C)(=O)=O)ccc1Nc1c2ccccc2nc2ccncc12` came in with a pKa of 5.94. Consider `COc1cc(NS(C)(=O)=O)ccc1Nc1c2ccccc2nc2c(C)c(C)ccc12`, for which the pKa amounted to 7.65. On to `COc1cc(NS(C)(=O)=O)ccc1Nc1c2ccccc2nc2cc(C(C)(C)C)ccc12`, for which the pKa was 7.64. The pKa values of the last two compounds are within 0.2 log units of each other. In the case of `COc1cc(NS(C)(=O)=O)ccc1N=c1c2ccccc2[nH]c2ccc(C(C)(C)C)cc12` it was 7.38. On to `COc1cc(NS(C)(=O)=O)ccc1Nc1c2ccc(C)cc2nc2cc([N+](=O)[O-])ccc12`, for which the pKa came out at 6.03.
